From the supplement of paper PMC6045584
± gives the standard deviation of the averaged measurements.

These test systems were tested with Nc1ncn([C@H]2C[C@H](O)[C@@H](CO)O2)c(=O)n1 [DECITABINE] (assay: surviving fraction relative to DMSO-only wells; higher = less growth inhibition). Settings: 50 nM; exposure time: 5 days.
Summary of the method: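 Log-phase tumour cells were seeded at 250–500 per well in 384-well plates and, from 24 hours after seeding, exposed continuously for five days to inhibitors at 0.5, 1, 5, 10, 50, 100, 500 and 1000 nM. Surviving fraction is CellTiter-Glo luminescence normalised to the median of DMSO-only wells. Luminescence was measured after 10 minutes at room temperature, and only lines screened three times with replicate Pearson r >0.7 and median Z' >0.3 were kept.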

Point of comparison: SUM44 BREAST, surviving fraction 1.31 ± 0.26. Against it:
- SCC36 HEADNECK — within error, 1.04 ± 0.089
- OS25HAL BONE — within error, 1.19 ± 0.034
- HCC1806 BREAST — lower, 0.256 ± 0.039
- HU09 BONE — within error, 1.17 ± 0.13
- SG43 HEADNECK — lower, 0.835 ± 0.18
- U2OS BONE — lower, 0.992 ± 0.029
- HOSMNG BONE — within error, 1.1 ± 0.036
- CASKI CERVIX — lower, 0.484 ± 0.033
- MDAMB231 BREAST — lower, 1.01 ± 0.021
- CAL51 BREAST — within error, 0.95 ± 0.12
- MDAMB436 BREAST — lower, 0.927 ± 0.11
- HSSYII SYNOVIAL — lower, 0.86 ± 0.049
- RDES SOFT TISSUE — within error, 1.13 ± 0.13
- MDAMB157 BREAST — lower, 0.632 ± 0.042
- CHLA90 AUTONOMIC GANGLIA — within error, 1.01 ± 0.12
- CADOES1 SOFT TISSUE — lower, 0.596 ± 0.096
- SG31 HEADNECK — within error, 1.08 ± 0.04
- SCC47 HEADNECK — within error, 1.03 ± 0.058
- S68 BREAST — lower, 0.697 ± 0.21
- SNU475 LIVER — lower, 1.03 ± 0.017
- 22RV1 PROSTATE — within error, 0.881 ± 0.27
- SG32 HEADNECK — within error, 1.25 ± 0.36
- SCC003 HEADNECK — lower, 0.922 ± 0.047
- JURKAT HAEMATOPOIETIC AND LYMPHOID TISSUE — lower, 0.121 ± 0.0055
- HT1080 SOFT TISSUE — lower, 0.964 ± 0.026
- CAL120 BREAST — lower, 0.995 ± 0.038
- MCF7 BREAST — lower, 0.843 ± 0.04
- MFM223 BREAST — within error, 1.05 ± 0.061
- LNCAP PROSTATE — lower, 0.785 ± 0.02
- PCI30 HEADNECK — lower, 0.963 ± 0.065
- OSHN BONE — within error, 1.17 ± 0.03
- SG28 HEADNECK — within error, 1.25 ± 0.14
- HOS BONE — within error, 1.06 ± 0.015
- HUO3N1 BONE — within error, 1.04 ± 0.022
- BT20 BREAST — within error, 1.46 ± 0.037
- SJSA1 BONE — within error, 1.55 ± 0.081
- JIMT1 BREAST — lower, 0.933 ± 0.038
- HCC78 LUNG — lower, 0.777 ± 0.21
- NY BONE — lower, 0.921 ± 0.021
- NOS1 BONE — within error, 1.09 ± 0.043

Same assay, conditions: 100 nM; exposure time: 5 days

Point of comparison: SNU475 LIVER, surviving fraction 0.984 ± 0.038. Against it:
- SCC36 HEADNECK — within error, 0.934 ± 0.067
- OS25HAL BONE — higher, 1.22 ± 0.034
- HCC1806 BREAST — lower, 0.159 ± 0.0035
- HU09 BONE — within error, 1.04 ± 0.027
- SG43 HEADNECK — within error, 0.868 ± 0.2
- U2OS BONE — within error, 0.902 ± 0.045
- HOSMNG BONE — higher, 1.12 ± 0.086
- CASKI CERVIX — lower, 0.368 ± 0.042
- SUM44 BREAST — higher, 1.23 ± 0.15
- MDAMB231 BREAST — within error, 0.965 ± 0.013
- CAL51 BREAST — within error, 0.865 ± 0.15
- MDAMB436 BREAST — lower, 0.823 ± 0.064
- HSSYII SYNOVIAL — lower, 0.696 ± 0.024
- RDES SOFT TISSUE — higher, 1.29 ± 0.16
- MDAMB157 BREAST — lower, 0.547 ± 0.058
- CHLA90 AUTONOMIC GANGLIA — within error, 0.994 ± 0.099
- CADOES1 SOFT TISSUE — lower, 0.448 ± 0.05
- SG31 HEADNECK — within error, 0.952 ± 0.11
- SCC47 HEADNECK — within error, 1.03 ± 0.03
- S68 BREAST — within error, 0.926 ± 0.2
- 22RV1 PROSTATE — within error, 0.801 ± 0.16
- SG32 HEADNECK — within error, 1.1 ± 0.14
- SCC003 HEADNECK — lower, 0.788 ± 0.032
- JURKAT HAEMATOPOIETIC AND LYMPHOID TISSUE — lower, 0.072 ± 0.003
- HT1080 SOFT TISSUE — within error, 0.928 ± 0.083
- CAL120 BREAST — within error, 0.967 ± 0.018
- MCF7 BREAST — lower, 0.861 ± 0.026
- MFM223 BREAST — within error, 1.05 ± 0.1
- LNCAP PROSTATE — lower, 0.695 ± 0.1
- PCI30 HEADNECK — within error, 0.96 ± 0.079
- OSHN BONE — higher, 1.17 ± 0.017
- SG28 HEADNECK — higher, 1.11 ± 0.045
- HOS BONE — within error, 1.02 ± 0.015
- HUO3N1 BONE — within error, 1 ± 0.014
- BT20 BREAST — higher, 1.33 ± 0.073
- SJSA1 BONE — higher, 1.68 ± 0.022
- JIMT1 BREAST — lower, 0.819 ± 0.048
- HCC78 LUNG — lower, 0.709 ± 0.025
- NY BONE — lower, 0.843 ± 0.054
- NOS1 BONE — within error, 0.992 ± 0.074

Same assay, conditions: 500 nM; exposure time: 5 days

Point of comparison: JIMT1 BREAST, surviving fraction 0.546 ± 0.036. Against it:
- SCC36 HEADNECK — higher, 0.709 ± 0.054
- OS25HAL BONE — higher, 1.047 ± 0.01
- HCC1806 BREAST — lower, 0.083 ± 0.012
- HU09 BONE — higher, 0.95 ± 0.084
- SG43 HEADNECK — higher, 0.812 ± 0.062
- U2OS BONE — higher, 0.679 ± 0.055
- HOSMNG BONE — higher, 1.1 ± 0.12
- CASKI CERVIX — lower, 0.214 ± 0.017
- SUM44 BREAST — higher, 1.13 ± 0.12
- MDAMB231 BREAST — higher, 0.865 ± 0.016
- CAL51 BREAST — within error, 0.586 ± 0.077
- MDAMB436 BREAST — higher, 0.796 ± 0.048
- HSSYII SYNOVIAL — lower, 0.48 ± 0.012
- RDES SOFT TISSUE — higher, 1.11 ± 0.16
- MDAMB157 BREAST — lower, 0.41 ± 0.075
- CHLA90 AUTONOMIC GANGLIA — higher, 0.984 ± 0.079
- CADOES1 SOFT TISSUE — lower, 0.316 ± 0.061
- SG31 HEADNECK — higher, 1.01 ± 0.13
- SCC47 HEADNECK — higher, 0.973 ± 0.028
- S68 BREAST — within error, 0.541 ± 0.13
- SNU475 LIVER — higher, 1.03 ± 0.036
- 22RV1 PROSTATE — within error, 0.614 ± 0.17
- SG32 HEADNECK — higher, 0.908 ± 0.071
- SCC003 HEADNECK — higher, 0.718 ± 0.032
- JURKAT HAEMATOPOIETIC AND LYMPHOID TISSUE — lower, 0.0327 ± 0.00058
- HT1080 SOFT TISSUE — higher, 0.665 ± 0.06
- CAL120 BREAST — higher, 0.806 ± 0.017
- MCF7 BREAST — higher, 0.842 ± 0.034
- MFM223 BREAST — higher, 0.993 ± 0.095
- LNCAP PROSTATE — higher, 0.634 ± 0.044
- PCI30 HEADNECK — higher, 0.843 ± 0.056
- OSHN BONE — higher, 1.22 ± 0.022
- SG28 HEADNECK — higher, 1.11 ± 0.13
- HOS BONE — higher, 0.8753 ± 0.0038
- HUO3N1 BONE — higher, 0.901 ± 0.017
- BT20 BREAST — higher, 1.1 ± 0.075
- SJSA1 BONE — higher, 1.73 ± 0.05
- HCC78 LUNG — lower, 0.213 ± 0.037
- NY BONE — higher, 0.649 ± 0.036
- NOS1 BONE — higher, 0.977 ± 0.22

Same assay, conditions: 1000 nM; exposure time: 5 days

Point of comparison: SNU475 LIVER, surviving fraction 1.03 ± 0.032. Against it:
- SCC36 HEADNECK — lower, 0.648 ± 0.074
- OS25HAL BONE — lower, 0.921 ± 0.055
- HCC1806 BREAST — lower, 0.0507 ± 0.008
- HU09 BONE — lower, 0.847 ± 0.034
- SG43 HEADNECK — lower, 0.8 ± 0.049
- U2OS BONE — lower, 0.699 ± 0.013
- HOSMNG BONE — higher, 1.11 ± 0.046
- CASKI CERVIX — lower, 0.209 ± 0.022
- SUM44 BREAST — higher, 1.15 ± 0.069
- MDAMB231 BREAST — lower, 0.835 ± 0.039
- CAL51 BREAST — lower, 0.481 ± 0.021
- MDAMB436 BREAST — lower, 0.685 ± 0.032
- HSSYII SYNOVIAL — lower, 0.348 ± 0.036
- RDES SOFT TISSUE — higher, 1.41 ± 0.28
- MDAMB157 BREAST — lower, 0.382 ± 0.059
- CHLA90 AUTONOMIC GANGLIA — within error, 1 ± 0.063
- CADOES1 SOFT TISSUE — lower, 0.278 ± 0.041
- SG31 HEADNECK — within error, 0.909 ± 0.095
- SCC47 HEADNECK — lower, 0.863 ± 0.1
- S68 BREAST — lower, 0.445 ± 0.013
- 22RV1 PROSTATE — lower, 0.509 ± 0.15
- SG32 HEADNECK — lower, 0.715 ± 0.064
- SCC003 HEADNECK — lower, 0.635 ± 0.065
- JURKAT HAEMATOPOIETIC AND LYMPHOID TISSUE — lower, 0.028 ± 0.001
- HT1080 SOFT TISSUE — lower, 0.627 ± 0.016
- CAL120 BREAST — lower, 0.717 ± 0.037
- MCF7 BREAST — lower, 0.83 ± 0.043
- MFM223 BREAST — lower, 0.799 ± 0.02
- LNCAP PROSTATE — lower, 0.522 ± 0.0079
- PCI30 HEADNECK — within error, 1.08 ± 0.075
- OSHN BONE — higher, 1.112 ± 0.0035
- SG28 HEADNECK — higher, 1.065 ± 0.0021
- HOS BONE — lower, 0.731 ± 0.029
- HUO3N1 BONE — lower, 0.879 ± 0.025
- BT20 BREAST — lower, 0.844 ± 0.069
- SJSA1 BONE — higher, 1.77 ± 0.053
- JIMT1 BREAST — lower, 0.471 ± 0.03
- HCC78 LUNG — lower, 0.166 ± 0.036
- NY BONE — lower, 0.479 ± 0.042
- NOS1 BONE — lower, 0.816 ± 0.031
